# Laboratory results as given in ChEMBL document CHEMBL3885881, “DrugMatrix”.
# Organism: Rattus norvegicus
# Test: DrugMatrix - Regimen: Daily Repeat
# Format: toxicity, organism-based, Sprague-Dawley
# Parameters: regimen Daily Repeat, gender Male, age 6-8 weeks
# Settings: in vivo, po, route oral GAVAGE, vehicle .5 % CMC; for ABSOLUTE BASOPHIL / ABSOLUTE EOSINOPHIL / ABSOLUTE LYMPHOCYTE / ABSOLUTE MONOCYTE / ABSOLUTE SEGMENTED NEUTROPHIL / BASOPHIL / EOSINOPHIL / ERYTHROCYTE COUNT / HEMATOCRIT / HEMOGLOBIN / LEUKOCYTE COUNT / LYMPHOCYTE / MEAN CORPUSCULAR HEMOGLOBIN / MEAN CORPUSCULAR HEMOGLOBIN CONCENTRATION / MEAN CORPUSCULAR VOLUME / MONOCYTE / NEUTROPHIL / NUCLEATED RED BLOOD CELLS / PLATELET COUNT: tissue Blood; for ALANINE AMINOTRANSFERASE / ALBUMIN / ALKALINE PHOSPHATASE / ASPARTATE AMINOTRANSFERASE / BLOOD UREA NITROGEN / CARBON DIOXIDE / CHLORIDE / CHOLESTEROL / CREATINE PHOSPHOKINASE / CREATININE / GLUCOSE / LACTATE DEHYDROGENASE / LIPASE / PHOSPHORUS / POTASSIUM / SODIUM / TOTAL BILIRUBIN / TOTAL PROTEIN / URIC ACID: tissue Plasma
# [1] = 0 mg/kg, 72 h, dose level Control, time 3 day
# [2] = 0 mg/kg, 120 h, dose level Control, time 5 day
# [3] = 20 mg/kg, 72 h, dose level Low, time 3 day
smiles,measurement,setting,value
CC(C)(C)NC(=O)[C@@H]1C[C@@H]2CCCC[C@@H]2CN1C[C@@H](O)[C@H](Cc1ccccc1)NC(=O)[C@H](CC(N)=O)NC(=O)c1ccc2ccccc2n1,ABSOLUTE BASOPHIL,[1],0 CELLS/uL
same,ABSOLUTE EOSINOPHIL,[1],222.83 CELLS/uL
same,ABSOLUTE LYMPHOCYTE,[1],14453 CELLS/uL
same,ABSOLUTE MONOCYTE,[1],0 CELLS/uL
same,ABSOLUTE SEGMENTED NEUTROPHIL,[1],1490.83 CELLS/uL
same,BASOPHIL,[1],0%
same,EOSINOPHIL,[1],1.33%
same,ERYTHROCYTE COUNT,[1],5.76 x10E6/uL
same,HEMATOCRIT,[1],36.52%
same,HEMOGLOBIN,[1],13.45 G/DL
same,LEUKOCYTE COUNT,[1],16.17 x10E3/uL
same,LYMPHOCYTE,[1],89.33%
same,MEAN CORPUSCULAR HEMOGLOBIN,[1],23.37 pg
same,MEAN CORPUSCULAR HEMOGLOBIN CONCENTRATION,[1],36.85 G/DL
same,MEAN CORPUSCULAR VOLUME,[1],63.47 fL
same,MONOCYTE,[1],0%
same,NEUTROPHIL,[1],9.33%
same,NUCLEATED RED BLOOD CELLS,[1],0 /100WBC
same,PLATELET COUNT,[1],1239.5 x10E3/uL
same,ALANINE AMINOTRANSFERASE,[1],43.83 u/L
same,ALBUMIN,[1],4.27 G/DL
same,ALKALINE PHOSPHATASE,[1],398.83 u/L
same,ASPARTATE AMINOTRANSFERASE,[1],81.17 u/L
same,BLOOD UREA NITROGEN,[1],17.67 mg/dL
same,CARBON DIOXIDE,[1],27.5 mmol/L
same,CHLORIDE,[1],99.17 MEQ/L
same,CHOLESTEROL,[1],74 mg/dL
same,CREATINE PHOSPHOKINASE,[1],331.5 u/L
same,CREATININE,[1],0.2 mg/dL
same,GLUCOSE,[1],171.33 mg/dL
same,LACTATE DEHYDROGENASE,[1],241.67 u/L
same,LIPASE,[1],9.5 u/L
same,PHOSPHORUS,[1],12.25 mg/dL
same,POTASSIUM,[1],6.33 MEQ/L
same,SODIUM,[1],141.28 MEQ/L
same,TOTAL BILIRUBIN,[1],0.15 mg/dL
same,TOTAL PROTEIN,[1],5.98 G/DL
same,URIC ACID,[1],1.63 mg/dL
same,ABSOLUTE BASOPHIL,[2],0 CELLS/uL
same,ABSOLUTE EOSINOPHIL,[2],148.67 CELLS/uL
same,ABSOLUTE LYMPHOCYTE,[2],16020.5 CELLS/uL
same,ABSOLUTE MONOCYTE,[2],29.17 CELLS/uL
same,ABSOLUTE SEGMENTED NEUTROPHIL,[2],1468.33 CELLS/uL
same,BASOPHIL,[2],0%
same,EOSINOPHIL,[2],1%
same,ERYTHROCYTE COUNT,[2],5.78 x10E6/uL
same,HEMATOCRIT,[2],35.77%
same,HEMOGLOBIN,[2],13.4 G/DL
same,LEUKOCYTE COUNT,[2],17.67 x10E3/uL
same,LYMPHOCYTE,[2],90.5%
same,MEAN CORPUSCULAR HEMOGLOBIN,[2],23.22 pg
same,MEAN CORPUSCULAR HEMOGLOBIN CONCENTRATION,[2],37.47 G/DL
same,MEAN CORPUSCULAR VOLUME,[2],61.92 fL
same,MONOCYTE,[2],0.17%
same,NEUTROPHIL,[2],8.33%
same,NUCLEATED RED BLOOD CELLS,[2],0.17 /100WBC
same,PLATELET COUNT,[2],1255.5 x10E3/uL
same,ALANINE AMINOTRANSFERASE,[2],46.5 u/L
same,ALBUMIN,[2],4.38 G/DL
same,ALKALINE PHOSPHATASE,[2],336 u/L
same,ASPARTATE AMINOTRANSFERASE,[2],76.5 u/L
same,BLOOD UREA NITROGEN,[2],20 mg/dL
same,CARBON DIOXIDE,[2],27.5 mmol/L
same,CHLORIDE,[2],101 MEQ/L
same,CHOLESTEROL,[2],71.33 mg/dL
same,CREATINE PHOSPHOKINASE,[2],231.83 u/L
same,CREATININE,[2],0.37 mg/dL
same,GLUCOSE,[2],168.83 mg/dL
same,LACTATE DEHYDROGENASE,[2],174 u/L
same,LIPASE,[2],8.67 u/L
same,PHOSPHORUS,[2],11.48 mg/dL
same,POTASSIUM,[2],6.82 MEQ/L
same,SODIUM,[2],143.8 MEQ/L
same,TOTAL BILIRUBIN,[2],0.2 mg/dL
same,TOTAL PROTEIN,[2],5.98 G/DL
same,URIC ACID,[2],1.83 mg/dL
same,ABSOLUTE BASOPHIL,[3],0 CELLS/uL
same,ABSOLUTE EOSINOPHIL,[3],240.67 CELLS/uL
same,ABSOLUTE LYMPHOCYTE,[3],11319.33 CELLS/uL
same,ABSOLUTE MONOCYTE,[3],32 CELLS/uL
same,ABSOLUTE SEGMENTED NEUTROPHIL,[3],1141.33 CELLS/uL
same,BASOPHIL,[3],0%
same,EOSINOPHIL,[3],1.67%
same,ERYTHROCYTE COUNT,[3],5.23 x10E6/uL
same,HEMATOCRIT,[3],32.43%
same,HEMOGLOBIN,[3],12.37 G/DL
same,LEUKOCYTE COUNT,[3],12.73 x10E3/uL
same,LYMPHOCYTE,[3],89%
same,MEAN CORPUSCULAR HEMOGLOBIN,[3],23.63 pg
same,MEAN CORPUSCULAR HEMOGLOBIN CONCENTRATION,[3],38.13 G/DL
same,MEAN CORPUSCULAR VOLUME,[3],62 fL
same,MONOCYTE,[3],0.33%
same,NEUTROPHIL,[3],9%
same,NUCLEATED RED BLOOD CELLS,[3],0 /100WBC
same,PLATELET COUNT,[3],1264.33 x10E3/uL
same,ALANINE AMINOTRANSFERASE,[3],43.67 u/L
same,ALBUMIN,[3],4.1 G/DL
same,ALKALINE PHOSPHATASE,[3],371.33 u/L
same,ASPARTATE AMINOTRANSFERASE,[3],73.67 u/L
same,BLOOD UREA NITROGEN,[3],14.33 mg/dL
same,CARBON DIOXIDE,[3],25.67 mmol/L
same,CHLORIDE,[3],102 MEQ/L
same,CHOLESTEROL,[3],79.67 mg/dL
same,CREATINE PHOSPHOKINASE,[3],319.67 u/L
same,CREATININE,[3],0.15 mg/dL
same,GLUCOSE,[3],144.67 mg/dL
same,LACTATE DEHYDROGENASE,[3],139.33 u/L
same,LIPASE,[3],8 u/L
same,PHOSPHORUS,[3],12.8 mg/dL
same,POTASSIUM,[3],6.81 MEQ/L
same,SODIUM,[3],142.53 MEQ/L
same,TOTAL BILIRUBIN,[3],0.2 mg/dL
same,TOTAL PROTEIN,[3],5.67 G/DL
same,URIC ACID,[3],1.47 mg/dL
